Series [1] is described as follows: Solubility test in deionized water (HPLC, external calibration). It is filed as physicochemical. As for the experimental part:
Experimental condition: 25±2° C.
Dissolving medium: deionized water
Experimental method: 1 mg voriconazole and appropriate amount of each compound were weighed, placed in 1 ml deionized water separately, shaken vigorously for 30 s every 5 mins for 30 mins.

Series [2] is described as follows: In vitro metabolic stability in human plasma. It is filed as in vitro ADME. The settings on record: 37°C, compound 10 μM. As for the experimental part: The two reaction systems were set up three samples in parallel, while each sample was taken in an amount of 100 μL at 1 min, 2 mins, 5 mins, 15 mins, and 30 mins after the reaction, added to the centrifuge tube containing 400 μL of 0° C. pre-cooled internal standard working fluid and terminated the reaction. The sample was mixed by vortex for 1 min, centrifuged at 10,000×g for 10 mins in a 4° C. pre-cooled high-speed centrifuge. The supernatant was taken for HPLC detection.

The nature of series [3]: In vitro metabolic stability in human intestinal S9. The class given is in vitro ADME. Particulars: 37°C, S9 1 mg/mL, compound 10 μM, NADPH regeneration system. As to the method:
(§1) The two reaction systems were set up three samples in parallel, while each sample was taken in an amount of 100 μL at 1 min, 2 mins, 5 mins, 15 mins, and 30 mins after the reaction, added to the centrifuge tube containing 400 μL of 0° C. pre-cooled internal standard working fluid and terminated the reaction. The sample was mixed by vortex for 1 min, centrifuged at 10,000×g for 10 mins in a 4° C. pre-cooled high-speed centrifuge. The supernatant was taken for HPLC detection. […] Concentration of mother liquor of compounds: 1 mM […] [table]

Series [4] can be described thus: In vitro metabolic stability in rat plasma. The settings on record: 37°C, compound 10 μM. It is filed as in vitro ADME. As for the experimental part:
The two reaction systems were set up three samples in parallel, while each sample was taken in an amount of 100 μL at 1 min, 2 mins, 5 mins, 15 mins, and 30 mins after the reaction, added to the centrifuge tube containing 400 μL of 0° C. pre-cooled internal standard working fluid and terminated the reaction. The sample was mixed by vortex for 1 min, centrifuged at 10,000×g for 10 mins in a 4° C. pre-cooled high-speed centrifuge. The supernatant was taken for HPLC detection. […] Concentration of mother liquor of compounds: 1 mM […]

Series [5] in a line: In vitro metabolic stability in rat intestinal S9. The class given is in vitro ADME. Particulars: 37°C, S9 1 mg/mL, compound 10 μM, NADPH regeneration system. As for the experimental part:
as §1

Series [6] can be described thus: Solid stability test (25°C, RH 60%, 30 days). The class given is physicochemical. The settings on record: 25°C±2°C, relative humidity 60%±2%. As for the experimental part: Experimental conditions: 25° C.±2° C., relative humidity 60%±2%
Experimental instrument: Agilent 1260 HPLC; chamber for stability test
Experimental method: each compound of the present disclosure was packaged (the inner packaging material was a penicillin bottle; the outer packaging material was a double-layer aluminum foil bag, and a desiccant was added inside and outside the package), placed in the chamber for stability test, at a temperature of 25° C.±2° C. and a relative humidity of 60%±2%. The degradation situation of the compounds for 30 days was examined. The contents of total impurities before and after 30 days of each compound were compared and the results were as follows: […]

Series [7] in a line: Pharmacokinetics after single gastrointestinal (gavage) administration in rats (plasma voriconazole). The settings on record: SD rats, 2.5 mg/kg (calculated as voriconazole). The class given is in vivo. As to the method: Dosing volume for administration: 10 ml/kg
Solvent medium for administration: except for the positive voriconazole group using CMC-Na, the other groups using normal saline
Route of administration: gavage

Series [8] concerns Candida albicans ATCC10231. The experiment in a line: Systemic fungal infection in mice, administration by gavage, survival. It is filed as in vivo. Particulars: ICR mice, 5 mg/kg (calculated as voriconazole) once daily for 5 days. As for the experimental part:
ICR mice, weighing 18-22 g, male, provided by the Hubei Experimental Animal Center.
The standard strain Candida albicans was purchased from the American Type Culture Collection, and the strain number was ATCC10231.
Before the experiment, a small amount of Candida albicans was picked from the SDA medium preserved at 4° C. by inoculation circle, inoculated into 1 ml of YPD culture medium, and cultured at 30° C. while being shaken at 200 rpm for 16 hours to make the fungus in the late stage of exponential growth. Blood cell counting plate was used to count, and the concentration of the broth was adjusted to 1*10^3−5*10^3 CFU/ml with RPMI1640 medium. The Candida albicans monoclone on the SDA plate was picked, inoculated into 1 ml YPD medium, cultured at 35° C., 200 rpm for 16 hours to the late exponential growth phase, 1% of which was then inoculated in fresh medium for 6 hours, centrifuged at 1000×g for 5 mins, washed three times with saline until the supernatant was colorless, while hemocytometer was used to count. The cell concentration was adjusted to 5*10^6/ml. The tail vein injection of 0.1 ml/10 g was carried out to cause a systemic fungal infection in mice. The mice were randomized into groups of 10 each. Voriconazole used was in the form of a suspension prepared with CMC-Na (Shanghai Panhong Chemical Technology Co., Ltd.), while other tested drugs were dissolved in saline and sonicated until clarified for administration. After establishing a systemic fungal infection model in mice for 2 hours, each group was administered by gavage with 5 mg/kg (calculated as voriconazole) drug, with the volume for administration of 0.1 ml/10 g. The mice in the model group were administered 0.1 ml/10 g of 0.9% sodium chloride solution, once daily, for 5 consecutive days. The death situation of the mice was inspected and the survival time was recorded. After a total of 7 days of observation, all dead mice were treated with fire using ethanol.

The nature of series [9]: Pharmacokinetics after single intravenous administration in rats (plasma voriconazole). Put shortly:
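SD rats (180–220 g, 3 male/3 female per group) given single tail-vein dose of 2.5 mg/kg (as voriconazole). Plasma voriconazole measured in blood sampled at multiple time points post-dose.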

Series [10] has as its system Candida albicans ATCC10231. The experiment in a line: Systemic fungal infection in mice, intravenous administration, survival. It is filed as in vivo. Particulars: ICR mice, tail vein, 5 mg/kg (calculated as voriconazole) once daily for 5 days. In outline: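 Male ICR mice (18-22 g) infected via tail vein with C. albicans ATCC10231 at 5*10^6 cells/ml, 0.1 ml/10 g; groups of 10. From 2 h post-infection, 5 mg/kg (as voriconazole) given i.v. once daily for 5 days, saline vehicle (voriconazole in sulfobutyl ether-β-cyclodextrin); survival time recorded over 7 days.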

The mark [11] stands for this setting: voriconazole in plasma, SD rats, tail vein injection, 2.5 mg/kg (calculated as voriconazole).

Like-named read-outs stand apart in the source and are kept apart here.

In general, Solubility refers to the concentration that dissolves in the medium under given conditions. In general, Cmax refers to the highest concentration seen after dosing. Regarding `CC(OC(=O)N(C)c1ncccc1COC(=O)[C@@H](N)CCCN)[n+]1cnn(C[C@](O)(c2ccc(F)cc2F)[C@@H](C)c2ncncc2F)c1.Cl.Cl.Cl.[Br-]` (stereo partly drawn) [QR16008], in series [1] (deionized water, 25±2°C), the Solubility is greater than 50 mg/mL. For the same compound, the “Human plasma T1/2” value in [2] worked out at 9.49 ± 1.31 min. For the same compound, the “Human intestinal S9 T1/2” value in series [3] is given as 30.25 ± 4.90 min. For the same compound, the “Rat plasma T1/2” value in [4] came to 10.58 ± 2.95 min. Further, the “Rat intestinal S9 T1/2” value in series [5] worked out at 32.52 ± 7.82 min. Moreover, the “Content increase of total impurity (25° C., placed for 30 days)” value in series [6] turned out to be 1.05%. In addition, in [7], the AUClast was 8745 ± 2365 ng·h/mL, the Cmax is 825 ± 256 ng/mL and the T1/2 is 159 ± 34.8 min. For the same compound, in series [8], the “survival rate of mice, day 1” value is on record as 100%; the “survival rate of mice, day 2” value is given as 100%; the “survival rate of mice, day 3” value is given as 100%; the “survival rate of mice, day 4” value is reported as 100%. In series [8], the “survival rate of mice, day 5” value is given as 90%; the “survival rate of mice, day 6” value is on record as 80%; the “survival rate of mice, day 7” value is 80%.
For `CC(OC(=O)N(C)c1ncccc1COC(=O)[C@@H](N)CCCCN)[n+]1cnn(C[C@](O)(c2ccc(F)cc2F)[C@@H](C)c2ncncc2F)c1.[Cl-]` (stereo partly drawn) [QR16017], the Solubility in series [1] is greater than 50 mg/mL. Besides, in series [2], the “Human plasma T1/2” value was 0.95 ± 0.28 min. For the same compound, the “Human intestinal S9 T1/2” value in series [3] stood at 11.25 ± 2.21 min. Also, in series [4], the “Rat plasma T1/2” value worked out at 0.78 ± 0.86 min. Besides, the “Rat intestinal S9 T1/2” value in series [5] was determined as 15.69 ± 6.95 min. Also, in series [9] (setting [11]), the AUClast is 10259 ± 3285 ng·h/mL and the T1/2 was 167 ± 45 min. In addition, in [7], the AUClast was 8695 ± 2958 ng·h/mL, the highest concentration (Cmax) is listed as 952 ± 421 ng/mL and the T1/2 was 177 ± 75 min. Besides, in series [10] (day 1), the “survival rate of mice, day 1” value was 100%. For the same compound, in series [10] (day 2), the “survival rate of mice, day 2” value is recorded as 100%. Moreover, the “survival rate of mice, day 3” value in series [10] (day 3) is reported as 100%. In [10] (day 4), the “survival rate of mice, day 4” value is on record as 100%. Besides, the “survival rate of mice, day 5” value in [10] (day 5) is reported as 100%. Moreover, the “survival rate of mice, day 6” value in series [10] (day 6) is given as 100%. Also, in [8], the “survival rate of mice, day 1” value was 100%; the “survival rate of mice, day 2” value is on record as 100%; the “survival rate of mice, day 3” value was 90%; the “survival rate of mice, day 4” value is 90%. Moreover, in [8], the “survival rate of mice, day 5” value is 90%; the “survival rate of mice, day 6” value is 90%; the “survival rate of mice, day 7” value is given as 80%.
`CC(OC(=O)N(C)c1ncccc1COC(=O)CN(C)C)[n+]1cnn(C[C@](O)(c2ccc(F)cc2F)[C@@H](C)c2ncncc2F)c1.Cl.Cl.[Cl-]` (stereo partly drawn) [QR16045] had a Solubility in [1] (deionized water, 25±2°C) greater than 50 mg/mL. Moreover, the “Human plasma T1/2” value in series [2] is on record as 8.95 ± 0.12 min. In addition, the “Human intestinal S9 T1/2” value in series [3] is given as 32.97 ± 8.45 min. Moreover, the “Rat plasma T1/2” value in series [4] worked out at 8.88 ± 0.55 min. For the same compound, the “Rat intestinal S9 T1/2” value in [5] is listed as 27.85 ± 6.58 min. In addition, the “Content increase of total impurity (25° C., placed for 30 days)” value in [6] is given as 2.23%. Further, in series [9] (rat, in vivo, 2.5 mg/kg), the AUClast amounted to 8586 ± 1856 ng·h/mL and the T1/2 came to 164 ± 46.8 min. In [7], the AUClast is 7859 ± 2256 ng·h/mL, the Cmax is on record as 562 ± 158 ng/mL and the T1/2 is 155 ± 52.8 min. In series [8], the “survival rate of mice, day 1” value is listed as 100%; the “survival rate of mice, day 2” value was 100%; the “survival rate of mice, day 3” value is 90%; the “survival rate of mice, day 4” value is 90%. In series [8], the “survival rate of mice, day 5” value is on record as 90%; the “survival rate of mice, day 6” value is reported as 90%; the “survival rate of mice, day 7” value was 80%.

The record behind these values is patent US11040958B2, “Triazole antimicrobial derivative, pharmaceutical composition and use thereof” (priority 2017, dated 2021).
